Key:
postoperative pain = settings: oral vs intramuscular; cited from earlier work
[1] = system: hospitalized patients with postoperative pain; settings: single oral doses, 128 hospitalized patients, evaluated each hour for 6 hours; Clin Pharmacol Ther 1986; 39:295-9; cited from earlier work
SD rats = assay: Paw pressure test (Randall and Selitto), analgesic effect after oral administration; format: in vivo, Sprague-Dawley rats; settings: alone or combined, mean ± SE; for AUG / AUC: analgesic effect AUC; for AUC: 0-300 min; for Maximum Peak (% of MPA): cut-off 750 g; for Duration of action (min) (20% of MPA): time over 20% MPA; for Onset of action (min) (20% of MPA): time up to 20% MPA
Experimental: Male Sprague-Dawley rats weights between 260 and 330 g were purchased from BioLASCO (Taipei, Taiwan). The rats were housed in a controlled condition (free access to food and water); 12-h light-dark cycle, temperature 22° C. and humidity 60%. All experiments were conducted in accordance with the IACUC's Protocol for the Care and Use of Animals and to treat the animals in an ethical and humane manner consistent with the law.
Analgesic effects studies were used to the paw pressure test by Randall and Selitto. Nociceptive threshold is expressed in grams and measured with an analgesimeter (IITC Inc. Life Science, CA), were applied to the left hind paw of rats. All animals were tested at 15, 30, and 45 min prior to medication, to obtain an average baseline. Results were expressed as a percentage of the maximum possible effect (% MPE), according to the formula % MPA=(Test-Baseline)/(Cutoff-Baseline)×100, cut-off value: 750 g. AUC (area under curve) is independent of each individual, at each time point detection value minus own baseline and integral, then calculated the average. Negative values (% MPA and AUC) are considered as zero. The maximum peak of % MPA and Tmax are independent of each individual, then calculated the average. With 20% MPA as a baseline of valid analgesic effect, analysis of onset time of action up to 20% MPA and duration time of action over 20% MPA. Pharmacodynamic studies were conducted to compare in rats the analgesic effects of oral administration of SDE 75 mg/kg alone. AAP product (100 mg/kg) alone and combinations of SDE 75 mg/kg plus AAP product (100 mg/kg) or NAL 60 mg/kg alone. AAP product (100 mg/kg) alone and combinations of NAL 60 mg/kg plus AAP product (100 mg/kg). The anti-nociceptive thresholds were measured at 30, 60, 90, 120, 150, 180, 210, 240, 270, and 300 min after drug administration.

[2] = conventional form, Br J Clin Pharmacol 1988, 25:264-8; cited from earlier work
[3] = Test 2, NAL 60 mg/kg, AAP product 100 mg/kg, MPA greater than 50%
[4] = Test 2, NAL 60 mg/kg, AAP product 100 mg/kg
[5] = Test 1, AAP product 100 mg/kg, SDE 75 mg/kg
[6] = Test 1, AAP product 100 mg/kg, SDE 75 mg/kg, time of maximum % MPA

SMILES	potency of oral relative to intramuscular nalbuphine as postoperative analgesic (postoperative pain)	analgesic effect (measures of total and peak analgesia) [1]	Duration of action (SD rats; [3]) [min]	Onset of action (SD rats; [3]) [min]	AUG (SD rats; [4]) [g·h]	% MPA (Maximum Peak) (SD rats; [4]) [% MPA]	Tmax (SD rats; [4]) [min]	bioavailability through oral administration [2]	AUC (SD rats; [5]) [g·h]	Maximum Peak (% of MPA) (SD rats; [5])	Tmax (SD rats; [6]) [min]	Duration of action (min) (20% of MPA) (SD rats; [5])	Onset of action (min) (20% of MPA) (SD rats; [5])
Oc1ccc2c3c1O[C@H]1[C@@H](O)CC[C@@]4(O)[C@@H](C2)N(CC2CCC2)CC[C@]314 [NAL, nalbuphine]	one quarter to one fifth as potent as intramuscular nalbuphine	significantly superior to placebo	16.61 ± 3.92	24.36 ± 0.86	298.9 ± 13.98	57.87 ± 2.77	30 ± 0	less than 5%	–	–	–	–	–
O=C(CCCCCCCCC(=O)Oc1ccc2c3c1O[C@H]1[C@@H](O)CC[C@@]4(O)[C@@H](C2)N(CC2CCC2)CC[C@]314)Oc1ccc2c3c1O[C@H]1[C@@H](O)CC[C@@]4(O)[C@@H](C2)N(CC2CCC2)CC[C@]314 [SDE, sebacoyl dinalbuphine ester]	–	–	–	–	–	–	–	–	359.4 ± 34.8	46.6 ± 3.8 % of MPA	37.5 ± 3.9	99.8 ± 10.0	14.7 ± 1.3
CC(=O)Nc1ccc(O)cc1 [AAP, acetaminophen]	–	significantly superior to placebo	–	–	274.83 ± 51.94	38.26 ± 7.2	45 ± 8.66	–	309.3 ± 68.5	32.4 ± 2.7 % of MPA	50.0 ± 10.0	77.5 ± 13.5	46.7 ± 17.5
